# Assay results reported in US20240376126A1, “PRMT5 INHIBITOR AND THE USE THEREOF” (CYTOSINLAB THERAPEUTICS CO., LTD., priority 2022, published 2024).
# Read-outs that look alike come from different tables or passages of the source.
# Columns and labels:
# HCT116 MTAP WT cells = assay: Proliferation inhibition of HCT116 cells in vitro (CellTiter Glo, 6 days); assay type: cell-based; conditions: Homo sapiens, HCT-116, 144 h, read-out: Cell proliferation inhibition rate HCT116 MTAP WT IC50 (nm)
# Source text: (§1) Biological Test Example 2 Proliferation Inhibition of HCT116 and HCT116 MTAP-KO Cells In Vitro
# (§2) HCT116 cell line was purchased from the Chinese Academy of Sciences Cell Bank, and the MTAP gene was knocked out by CRISPR/Cas9 technology to obtain HCT116-MTAP-KO cell line.
# (§3) McCoy's 5A medium (Gibco, catalog No. 16600082), fetal bovine serum (Gibco, catalog No. 10099141C), penicillin-streptomycin double antibody (Gibco, catalog No. 15140122), pancreatic enzyme (Gibco, catalog No. 25200056), CellTiter Glo assay kit (Promega, catalog No. G7572), 384-well transparent flat-bottomed black walled cell culture plate (Corning, catalog No. 3764), ultra micro sampler (Tecan, catalog No. D300e), Multimode reader (Biotek, catalog No. SynergyHTX)
# (§4) • 1. Cell culture: HCT116 and HCT116-MTAP-KO cells were cultured in McCoy'5A medium+10% fetal bovine serum+1% penicillin-streptomycin double antibody; to ensure that they were always in the logarithmic growth phase and the cell viability greater than 95%. • 2. Compound concentration gradient preparation: The compound to be tested was added to a 384-well plate using an ultra micro sampler, starting from 30 μM (HCT116 cells) or 3 μM (HCT116-MTAP-KO cells), and diluted with DMSO at 3 times for a total of 9 concentrations and set up three duplicate wells. • 3. Treatment of cells with compounds: Trypsin-digested HCT116 or HCT116-MTAP-KO cell suspension was added to the 384-well plates spotted with the compounds to be tested at 40 μL per well, i.e., 100 cells per well, and the final concentration of DMSO was 0.4%. The cell culture plate was incubated at 37° C. in a 5% CO2 incubator for 6 days. • 4. Detection: 20 μL of CellTiter Glo reagent was added to each well of the cell culture plate and incubated at room temperature for 30 minutes. A multimode reader was used to detect the luminescence signal at […]. • 5. Data analysis:
# (§5) The data was fitted with GraphPad Prism 8.0 software using a four parameter inhibitor-reaction model to obtain the […] (half inhibitory concentration) of the test compounds.
# (§6) The first column represents cell proliferation inhibition rate HCT116 MTAP WT IC50 (nm), and the second column represents cell proliferation inhibition rate HCT116-MTAP null IC50 (nm): […]
# [1] = test system: HCT116-MTAP-KO (MTAP null) cells; assay: Proliferation inhibition of HCT116 MTAP-KO cells in vitro (CellTiter Glo, 6 days); assay type: cell-based; conditions: read-out: Cell proliferation inhibition rate HCT116-MTAP null IC50 (nm)
# Source text: as §1, §2, §3, §4, §5, §6
SMILES,IC50 (HCT116 MTAP WT cells),"IC50 ([1]; HCT116-MTAP null, 144 h)",IC50 [1]
"CC(C)CN(Cc1cn2cc(C(F)(F)F)ccc2n1)C(=O)c1ccc2nc(N)c3c(c2c1)COC3 [Example 3, 4-Amino-N-isobutyl-N—((6-(trifluoromethyl)imidazolo [1,2-a]pyridin-2-yl)methyl)-1,3-dihydrofurano [3,4-c] quinolin-8-carboxamide]",1 to 10 µM,< 0.1 µM,
CC1OCc2c1c(N)nc1ccc(C(=O)N(Cc3cn4ccccc4n3)C(C)c3ncccn3)cc21 (stereo not drawn) [Example 5],1 to 10 µM,< 0.1 µM,
CCN(Cc1cn2ccccc2n1)C(=O)c1ccc2nc(N)c3c(c2c1)COC3 [Example 6],1 to 10 µM,< 0.1 µM,
CCN(Cc1cn2ccccc2n1)C(=O)c1ccc2nc(N)c3c(c2c1)COC3C (stereo not drawn) [Example 7],1 to 10 µM,< 0.1 µM,
Cc1cc2cc(C(=O)N(Cc3cn4ccccc4n3)C(C)c3ncccn3)ccc2nc1N (stereo not drawn) [Example 8],1 to 10 µM,< 0.1 µM,
Cn1ncc2c(N)nc3cc(F)c(C(=O)N(Cc4cn5ccccc5n4)C4COC4)cc3c21 [Example 9],1 to 10 µM,0.1 to 1 µM,
CCN(C(=O)c1cc2c(cc1F)nc(N)c1cnn(C)c12)C(C)c1cn2ccccc2n1 (stereo not drawn) [Example 10],1 to 10 µM,< 0.1 µM,
COCCN(Cc1cn2ccccc2n1)C(=O)c1cc2c(cc1F)nc(N)c1cnn(C)c12 [Example 11],1 to 10 µM,< 0.1 µM,
Cn1ncc2c(N)nc3cc(F)c(C(=O)N(Cc4cn5ccccc5n4)C45CC(C4)C5)cc3c21 [Example 12],0.1 to 1 µM,< 0.1 µM,
Cn1cc(N(Cc2cn3ccccc3n2)C(=O)c2cc3c(cc2F)nc(N)c2cnn(C)c23)cn1 [Example 14],1 to 10 µM,< 0.1 µM,
CCN(C(=O)c1ccc2nc(N)c3c(cnn3C)c2c1)C(C)c1cn2ccccc2n1 (stereo not drawn) [Example 15],1 to 10 µM,0.1 to 1 µM,
Cn1cc(N(Cc2cn3cc(C(F)(F)F)ccc3n2)C(=O)c2ccc3nc(N)c4cnn(C)c4c3c2)cn1 [Example 16],1 to 10 µM,0.1 to 1 µM,
CCN(Cc1cn2ccccc2n1)C(=O)c1ccc2nc(N)c3cnn(C)c3c2c1 [Example 18],1 to 10 µM,< 0.1 µM,
CC1COCC(c2cn3ccccc3n2)N1C(=O)c1cc2c(cc1F)nc(N)c1cnn(C)c12 (stereo not drawn) [Example 19],0.1 to 1 µM,< 0.1 µM,
CC(C)CN(Cc1cn2cc(C#N)ccc2n1)C(=O)c1cc2c(cc1F)nc(N)c1cnn(C)c12 [Example 20],0.1 to 1 µM,< 0.1 µM,
Cn1ncc2c(N)nc3cc(F)c(C(=O)N(Cc4cn5ccccc5n4)C4CCOC4)cc3c21 (stereo not drawn) [Example 22],1 to 10 µM,0.1 to 1 µM,
Cn1ncc2c(N)nc3cc(F)c(C(=O)N(Cc4cn5ccccc5n4)C4CCCC4O)cc3c21 (stereo not drawn) [Example 23],1 to 10 µM,< 0.1 µM,
Cn1ncc2c(N)nc3cc(F)c(C(=O)N(Cc4cn5ccccc5n4)C4CCCCC4O)cc3c21 (stereo not drawn) [Example 24],1 to 10 µM,< 0.1 µM,
CC1COCC(c2cn3ccccc3n2)N1C(=O)c1ccc2nc(N)c3c(cnn3C)c2c1 (stereo not drawn) [Example 25],1 to 10 µM,0.1 to 1 µM,
Cn1ncc2c(N)nc3cc(F)c(C(=O)N(Cc4cn5ccccc5n4)CC(F)F)cc3c21 [Example 26],1 to 10 µM,< 0.1 µM,
Cn1ncc2c(N)nc3cc(F)c(C(=O)N(Cc4cn5ccccc5n4)CC(C)(F)F)cc3c21 [Example 27],1 to 10 µM,< 0.1 µM,
CC(N(Cc1cn2ccccc2n1)C(=O)c1cc2c(cc1F)nc(N)c1cnn(C)c12)C(F)(F)F (stereo not drawn) [Example 28],1 to 10 µM,< 0.1 µM,
CCN(Cc1cn2ccccc2n1)C(=O)c1ccc2nc(N)c3c(cnn3C)c2c1 [Example 29],1 to 10 µM,0.1 to 1 µM,
CCN(Cc1nc2ccccn2c1C)C(=O)c1cc2c(cc1F)nc(N)c1cnn(C)c12 [Example 30],1 to 10 µM,< 0.1 µM,
CC(c1cn2ccccc2n1)N(C(=O)c1cc2c(cc1F)nc(N)c1cnn(C)c12)C12CC(C1)C2 (stereo not drawn) [Example 31],1 to 10 µM,< 0.1 µM,

SMILES,IC50 (HCT116 MTAP WT cells),"IC50 ([1]; HCT116-MTAP null, 144 h)",IC50 [1]
Cc1cc2cc(C(=O)N(Cc3cn4ccccc4n3)C(C)c3cccc(F)n3)ccc2nc1N (stereo not drawn) [Example 32],1 to 10 µM,< 0.1 µM,
CCN(C(=O)c1ccc2nc(N)c3c(c2c1)COC3C)C(C)c1cn2ccccc2n1 (stereo not drawn) [Example 33],1 to 10 µM,0.1 to 1 µM,
CC(C)CN(Cc1cn2cc(C(F)(F)C(F)(F)F)ccc2n1)C(=O)c1cc2c(cc1F)nc(N)c1cnn(C)c12 [Example 34],< 0.1 µM,< 0.1 µM,
COCCOc1ccc2nc(CN(CC(C)C)C(=O)c3cc4c(cc3F)nc(N)c3cnn(C)c34)cn2c1 [Example 35],1 to 10 µM,< 0.1 µM,
CC(C)CN(Cc1cn2cc(C(F)(F)F)ccc2n1)C(=O)c1cc2c(cc1F)nc(N)c1cnn(C)c12 [Example 36],0.1 to 1 µM,< 0.1 µM,
[2H]C([2H])([2H])N(Cc1cn2ccccc2n1)C(=O)c1cc2c(cc1F)nc(N)c1cnn(C)c12 [Example 37],1 to 10 µM,< 0.1 µM,
Cc1cc2cc(C(=O)N(Cc3cn4ccccc4n3)C(C)c3ncccn3)c(F)cc2nc1N (stereo not drawn) [Example 38],1 to 10 µM,< 0.1 µM,
Cc1cc2cc(C(=O)N(Cc3cn4cc(C(F)(F)F)ccc4n3)C(C)c3ncccn3)c(F)cc2nc1N (stereo not drawn) [Example 39],1 to 10 µM,< 0.1 µM,
CCN(C(=O)c1cc2cc(C)c(N)nc2cc1F)C(C)c1cn2ccccc2n1 (stereo not drawn) [Example 40],1 to 10 µM,< 0.1 µM,
COCCN(Cc1cn2cc(C(F)(F)F)ccc2n1)C(=O)c1ccc2nc(N)c3c(c2c1)COC3C (stereo not drawn) [Example 41],1 to 10 µM,< 0.1 µM,
"CC1OCc2c1c(N)nc1ccc(C(=O)N(Cc3cn4cc(C(F)(F)F)ccc4n3)c3cnn(C)c3)cc21 (stereo not drawn) [Example 42, 4-Amino-3-methyl-N-(1-methyl-1H-pyrazol-4-yl)-N-((6-(trifluoromethyl)imidazolo[1,2-a]pyridin-2-yl)methyl)-1,3-dihydrofurano[3,4-c]quinolin-8-carboxamide]",1 to 10 µM,< 0.1 µM,
CC1OCc2c1c(N)nc1ccc(C(=O)N(Cc3cn4cc(C(F)(F)F)ccc4n3)C34CC(C3)C4)cc21 (stereo not drawn) [Example 43],1 to 10 µM,< 0.1 µM,
COCC(C)N(Cc1cn2cc(C(F)(F)F)ccc2n1)C(=O)c1ccc2nc(N)c3c(c2c1)COC3C (stereo not drawn) [Example 44],1 to 10 µM,< 0.1 µM,
COC1CC(N(Cc2cn3ccccc3n2)C(=O)c2cc3c(cc2F)nc(N)c2cnn(C)c23)C1 (stereo not drawn) [Example 45],1 to 10 µM,< 0.1 µM,
CCN(Cc1cn2ccccc2n1)C(=O)c1ccc2nc(N)c3c(c2c1)CO[C@H]3C [Example 47],1 to 10 µM,< 0.1 µM,
C[C@H]1OCc2c1c(N)nc1ccc(C(=O)N(Cc3cn4cc(C(F)(F)F)ccc4n3)c3cnn(C)c3)cc21 [Example 48],1 to 10 µM,1 to 10 µM,
C[C@@H]1OCc2c1c(N)nc1ccc(C(=O)N(Cc3cn4cc(C(F)(F)F)ccc4n3)c3cnn(C)c3)cc21 [Example 49],1 to 10 µM,< 0.1 µM,
[2H]C([2H])([2H])N(Cc1cn2cc(C(F)(F)F)ccc2n1)C(=O)c1ccc2nc(N)c3c(c2c1)COC3C (stereo not drawn) [Example 50],1 to 10 µM,0.1 to 1 µM,< 0.1 µM
CCN(Cc1cn2cc(C(F)(F)F)ccc2n1)C(=O)c1ccc2nc(N)c3c(c2c1)COC3C (stereo not drawn) [Example 51],1 to 10 µM,0.1 to 1 µM,
CC(C)CN(Cc1cn2cc(C(F)(F)F)ccc2n1)C(=O)c1ccc2nc(N)c3c(c2c1)COC3C (stereo not drawn) [Example 52],1 to 10 µM,< 0.1 µM,
CC(C)CN(Cc1cn2ccccc2n1)C(=O)c1ccc2nc(N)c3c(c2c1)COC3C (stereo not drawn) [Example 53],1 to 10 µM,< 0.1 µM,
CC(C)CN(Cc1cn2ccccc2n1)C(=O)c1ccc2nc(N)c3c(c2c1)CO[C@@H]3C [Example 54],1 to 10 µM,0.1 to 1 µM,
CC(C)CN(Cc1cn2ccccc2n1)C(=O)c1ccc2nc(N)c3c(c2c1)CO[C@H]3C [Example 55],1 to 10 µM,< 0.1 µM,
Cc1nn(C)cc1N(Cc1cn2cc(C(F)(F)F)ccc2n1)C(=O)c1cc2c(cc1F)nc(N)c1cnn(C)c12 [Example 238],,0.1 to 1 µM,
Cn1nccc1N(Cc1cn2cc(C(F)(F)F)ccc2n1)C(=O)c1cc2c(cc1F)nc(N)c1cnn(C)c12 [Example 240],,< 0.1 µM,
